Source: patent US4443619A, “Chlorocitric acids” (Hoffmann-La Roche Inc., priority 1981, dated 1984)

Legend:
Stomach Emptying = assay: Effect on stomach emptying ([14C]glucose load) in rats (Example 25); format: in vivo
Protocol: Rats were trained to consume a 3 hr 70% glucose meal from 8 a.m. to 11 a.m. daily. On the experimental day, compounds were administered orally by intubation 30 min before a [^14 C]glucose load was given also by intubation. […] Sixty minutes later the rats were killed by decapitation; blood and stomachs were collected on ice.
Data are expressed as follows: dpm×10^3 per ml of serum and dpm×10^3 per stomach.

[1] = Comparative anorectic activity: food consumption in meal-fed rats (acute, Example 13); format: in vivo, Charles River female rats; settings: 3 hr meal, mean ± S.E.
Protocol: Charles River female rats (Charles River Breeding Laboratories, Wilmington, Mass.), weighing 150 to 175 g, were individually housed in wire-bottomed cages in a temperature-regulated (22° C.) light-controlled room (12 hr light, 6 a.m. to 6 p.m. and 12 hr dark, 6 p.m. to 6 a.m.). Animals were fasted 48 hr, then meal-fed the 70% glucose diet described by A. C. Sullivan, et al., J. Nutrition, 101, 265 (1971) from 8 to 11 a.m. Following 5 to 13 days alimentation on the meal-feeding regimen, rats were dosed with the appropriate compounds orally by intubation 1/2 hr before the 3 hr meal. Food cups were weighed immediately after the meal. The control group consists of 31 rats while each drug treated group consists of 5 to 12 rats.
The G-70 diet consisted of 70% glucose, 23% vitamin-free casein, 5% Phillips and Hart salt mixture IV, 1% corn oil, 1% complete vitamin mixture, and 40 g/kg cellulose. To ensure complete uniformity, all diets were mixed with a twen-shell dry blender equipped with an itensifier bar (Patterson-Kelly Co., East Stroudsburg, Pa.).

Fatty Acid Synthesis = assay: Fatty acid synthesis in pair-feeding experiments in rats (Example 24); format: in vivo, female rats of the Charles River CD strain
Protocol: Female rats of the Charles River CD strain (Charles River Breeding Laboratories, Wilmington, Mass.) weighing 120-160 g (ca. […] old) were housed individually in wire-bottomed cages in a temperature-regulated (22 C.), light-controlled room (12 hour light 6 A.M.-6 P.M., and dark 6 P.M.-6 A.M.). They had free access to water and were fed a commercial diet (Purina Rodent Chow, Ralston Purina Co., St. Louis, Mo.) ad libitum for at least 1 week prior to the experiment. Animals were fasted 48 hours, then meal-fed a synthetic diet (G-70) daily from 8-11 A.M. for the remainder of the experiment. Food consumption and body weight were measured during the meal-feeding period. […] Food spillage was measured daily.
Each group consisted of 8 to 10 (140 to 160 g) rats. Food intake was monitored for a 3 day period; the animals were dosed immediately before the 3 hr meal. Pair-fed animals were fed the amount of food which the drug treated groups ate on the previous days (days 2 and 3).
Immediately after the 3 hour feeding period, rats were administered intravenously a 0.25 ml saline (pH 7.4 to 7.6) solution with the following composition: 12.3 mg alanine, 5 μCi [^14 C] alanine (specific activity=156 mCi/mmole), 30.6 mg-ketoglutarate (as an amine acceptor for transaminase) and 1 mCi [^3 H] water (specific activity=100 mCi/g). […] [^3 H] Water was employed to determine the total rate of lipogenesis, since tritium is incorporated into fatty acids independent of the source of carbon precursors. Animals were killed by decapitation and blood collected in centrifuge tubes 30 minutes after the radioactive pulse, unless otherwise indicated. The specific radioactivity of the body water of each rat was determined by counting a diluted serum aliquot in 10 ml following cocktail: toluene (2.41), 2-methoxyethanol (1.61), naphthalene (320 g), and BBOT (2,5-bis-2-(5-tert-butylbenzoxazolyl)-thiophene, 16 g). Liver, and small intestine was excised rapidly, weighed, and homogenized in 15 ml H2 O in a Virtis 45 Macro Homogenizer for 15 sec at ca. 30,000 rpm. Duplicate 3 ml aliquots of whole homogenates were saponified, extracted, and the absolute radioactivity (dpm) determined. Liver lipids were extracted totally or separated into fatty acids and cholesterol by anion exchange chromatography. It was determined by anion exchange chromatography that the total lipid extract of liver contained fatty acids (96-97%) and cholesterol (3-4%). Data are expressed as nmoles [^14 C] alanine or μ moles [^3 H] water converted into lipid/g tissue/30 minutes. The nmoles [^14 C] alanine were calculated according to the injected load of alanine, as reported previously by A. C. Sullivan et al., Arch. Biochem. and Biophys., 150, 183 (1972). The μ moles [^3 H] water were determined as described previously by A. C. […]

[2] = system: fatty acid and cholesterol syntheses; assay: Inhibition of fatty acid, lipid and cholesterol synthesis (summary statements)
[3] = Body weight gain in 8 hour meal-fed Zucker rats (Example 18); format: in vivo, lean (Fa/-) and obese (fa/fa); settings: 1.32 mmoles/kg b.i.d. oral, 6 days, mean ± S.E.
Protocol: (§1) Lean (Fa/-) Zucker rats and obese (fa/fa) Zucker rats of both sexes were individually housed in wire-bottomed cages in a temperature-regulated (22° C.) light-controlled room (12 hr light, 6 a.m. to 6 p.m. and 12 hr dark, 6 p.m. to 6 a.m.). The animals were fed a high carbohydrate (70% glucose) diet ad libitum for 13 days, dosed with the indicated compounds by oral intubation for 9 days and allowed to recover for 3 days. The animals were then meal fed from 8 a.m. to 4 p.m. for a period of 5 days, following which they were continued on the same meal schedule for an additional 6 days. During the 6-day period, the animals were administered the indicated compounds by oral intubation at 8 a.m. and 12 p.m. Body weight gain during the 6-day period was determined.

[4] = Food intake in dogs, pyramiding oral doses (Examples 26 and 27); format: in vivo, beagle dogs
Protocol: Twelve beagle dogs of both sexes weighing 7.6-12.2 kg were used for this test. The test compounds were contained in gelatin capsules for oral administration to two dogs of each sex. The animals were weighed and food consumption calculated daily excluding weekends throughout the test period. Each animal received 800 grams of diet daily consisting of 400 grams of Wayne pellet dog food mixed with 400 ml distilled water. The animals received pyramiding oral doses of the test compound over the three week period. On Monday and Tuesday of the first week the animals were weighed and food consumption was recorded (control). The animals received 3 mg/kg on Wednesday and 10 mg/kg on Friday of the first week. Doses of 30, 100 and 300 mg/kg were administered on Monday, Wednesday and Friday respectively during the second week. A final dose of 1000 mg/kg was administered on Monday of the third week.
Food intake was determined by the procedure by pyramiding doses described in Example 26.

[5] = Anorectic effect in 8 hour meal-fed Zucker rats (Example 17); format: in vivo, lean (Fa/-) and obese (fa/fa)
Protocol: as §1, with “p.m.” for “p.m. to”, “Food cups were weighed immediately after” for “Body weight gain during”, “meal.” for “6-day period was determined.”

[6] = 0.33 mmoles/kg oral, 60 min after [14C]glucose load, mean ± S.E.
[7] = test day 20, no dose, (±) one animal, (+) and (-) two animals

In the case of `O=C(O)C[C@@](O)(C(=O)O)[C@H](O)C(=O)O` [Trisodium (-)-threo-hydroxycitrate, reference compound], the “Serum, total per ml” value (Stomach Emptying; [6]) is reported as 4.5 ± 0.3 dpm × 10^3, the “Stomach Contents, total per stomach” value (Stomach Emptying; [6]) is reported as 1973 ± 154 dpm × 10^3 and the Food consumption ([1]; 0.33 mmoles/kg oral) is reported as 11.5 ± 0.7 g. For the same compound, the Food consumption ([1]; 0.66 mmoles/kg oral) was 9.0 ± 0.6 g, the Food consumption ([1]; 1.32 mmoles/kg oral) was 9.9 ± 1.0 g and the Food consumption ([1]; 2.63 mmoles/kg oral) was 8.9 ± 0.8 g. For the same compound, the “Fatty Acid Synthesis, 3H2O converted” value (Fatty Acid Synthesis; 2.63 mmoles/kg, pair-fed control 21.3 ± 2.3) was 14.4 ± 1.6 μmoles ^3 H2 O converted/g liv and the “Fatty Acid Synthesis, [14C]alanine converted” value (Fatty Acid Synthesis; 2.63 mmoles/kg, pair-fed control 714 ± 86) was 279 ± 36 nmoles [^14 C]alanine converte.
With `O=C(O)CC(O)(C(=O)O)C(O)C(=O)O` (single isomer, unassigned) [hydroxycitric acid, reference compound] the “delay in gastric emptying” value (Stomach Emptying; comparable doses) was “delayed gastric emptying” and the “metabolic activity on lipid (fatty acid) and cholesterol syntheses” value [2] was “inhibition of fatty acid and cholesterol syntheses”.
For `O=C(O)C[C@@](O)(C(=O)O)[C@@H](Cl)C(=O)O` (relative stereo) [(±)-threo-Chlorocitric acid], the “Body Weight Gain” value ([3]; Fa/- lean) was -22.9 ± 2.9 g, the “Body Weight Gain” value ([3]; fa/fa obese) was -27.9 ± 4.6 g and the Food consumption ([1]; 0.08 mmoles/kg oral) was 6.4 ± 0.6 g. It also gave a Food consumption ([1]; 0.17 mmoles/kg oral) of 6.8 ± 0.7 g, a Food consumption ([1]; 0.33 mmoles/kg oral) of 5.7 ± 0.5 g and a Food consumption ([1]; 0.66 mmoles/kg oral) of 3.9 ± 0.3 g. The Food consumption ([1]; 1.32 mmoles/kg oral) was 3.1 ± 0.4 g, the Food consumption ([1]; 2.63 mmoles/kg oral) was 3.8 ± 0.3 g and the “Fatty Acid Synthesis, 3H2O converted” value (Fatty Acid Synthesis; 1.32 mmoles/kg, pair-fed control 25.6 ± 3.9) was 21.4 ± 1.6 μmoles ^3 H2 O converted/g liv. The “Fatty Acid Synthesis, [14C]alanine converted” value (Fatty Acid Synthesis; 1.32 mmoles/kg, pair-fed control 639 ± 69) was 809 ± 67 nmoles [^14 C]alanine converte, the “Food Consumption, % of control” value [4, 7] was 167 % of control and the “Food consumption” value [4, 7] was 800 g. For the same compound, the “Food consumption” value ([4]; test days -2, -1, before dosing (control period)) was 479 ± 96 g, the “Daily Food Consumption” value ([5]; Fa/- lean, 1.32 mmoles/kg oral, treatment day 1) was 11.6 ± 0.8 g and the “Daily Food Consumption” value ([5]; Fa/- lean, 1.32 mmoles/kg oral, treatment day 2) was 7.5 ± 0.8 g. The “Daily Food Consumption” value ([5]; Fa/- lean, 1.32 mmoles/kg oral, treatment day 3) was 8.6 ± 1.3 g, the “Daily Food Consumption” value ([5]; Fa/- lean, 1.32 mmoles/kg oral, treatment day 4) was 6.9 ± 1.0 g and the “Daily Food Consumption” value ([5]; Fa/- lean, 1.32 mmoles/kg oral, treatment day 5) was 6.1 ± 0.7 g. For the same compound, the “Daily Food Consumption” value ([5]; Fa/- lean, 1.32 mmoles/kg oral, treatment day 6) was 7.2 ± 1.0 g, the “Daily Food Consumption” value ([5]; Fa/- lean, 1.32 mmoles/kg, day 0 (pretreatment)) was 12.3 ± 0.7 g and the “Daily Food Consumption” value ([5]; fa/fa obese, 1.32 mmoles/kg oral, treatment day 1) was 13.1 ± 0.9 g. The “Daily Food Consumption” value ([5]; fa/fa obese, 1.32 mmoles/kg oral, treatment day 2) was 7.8 ± 0.8 g, the “Daily Food Consumption” value ([5]; fa/fa obese, 1.32 mmoles/kg oral, treatment day 3) was 6.6 ± 0.2 g and the “Daily Food Consumption” value ([5]; fa/fa obese, 1.32 mmoles/kg oral, treatment day 4) was 5.9 ± 0.8 g. The “Daily Food Consumption” value ([5]; fa/fa obese, 1.32 mmoles/kg oral, treatment day 5) was 4.6 ± 1.1 g, the “Daily Food Consumption” value ([5]; fa/fa obese, 1.32 mmoles/kg oral, treatment day 6) was 5.3 ± 1.3 g and the “Daily Food Consumption” value ([5]; fa/fa obese, 1.32 mmoles/kg, day 0 (pretreatment)) was 14.3 ± 0.8 g.
